This note sets out measurements from ChEMBL document CHEMBL2086342, “Synthesis and preliminary bioevaluation of novel E-ring modified acetal analog of camptothecin as cytotoxic agents” (Eur J Med Chem, 2012).

For data set [1], the system named is A549. As to the kind of experiment: Antiproliferative activity against human A549 cells after 3 days by MTT assay. The data set is classed as functional, cell-based. To be noted: A549, 72 h. For orientation: Formazan colour is commonly taken as a measure of viable cells.
The subject of a further data set is HCT-116. As to the kind of experiment: Antiproliferative activity against human HCT116 cells after 3 days by MTT assay. The class given is functional, cell-based. The following applies: HCT-116, 72 h.
A further data set concerns MDA-MB-435. As to the kind of experiment: Antiproliferative activity against human MDA-MB-435 cells after 3 days by MTT assay. To be noted: MDA-MB-435, 72 h. The class given is functional, cell-based.
The species entered for data set [2] is Bos taurus. Kind of data set: Inhibition of calf thymus DNA topoisomerase 1-mediated relaxation of supercoiled DNA pBR322 assessed as appearance of short DNA fragment at 100 uM after 15 mins by agarose gel electrophoresis.
Data set [3] is filed under the species Bos taurus. As to the kind of experiment: Inhibition of calf thymus DNA topoisomerase 1-mediated relaxation of supercoiled DNA pBR322 assessed as appearance of short DNA fragment at 1 to 50 uM after 15 mins by agarose gel electrophoresis.
The species named for data set [4] is Bos taurus. Kind of data set: Inhibition of calf thymus DNA topoisomerase 1-mediated relaxation of supercoiled DNA pBR322 assessed as appearance of short DNA fragment after 15 mins by agarose gel electrophoresis.
In data set [5] the test system is A549. Kind of data set: Antitumor activity against human A549 cells xenografted in BALB/c mouse assessed as decrease in tumor weight at 0.5 mg/kg, iv qd for 5 days measured after 14 days relative to control. The class given is functional. To be noted: read-out: TGI.
Data set [6] concerns Mus musculus. Kind of data set: Toxicity in human A549 cells xenografted in BALB/c mouse assessed as reduction in body weight at 0.5 mg/kg, iv qd for 5 days measured after 14 days. The class given is organism-based. The arrangement: dose 0.5 mg/kg, route intravenous. The following applies: in vivo, 336 h. Background: Xenograft models place foreign cells or tissue in a host animal.

Data set [7] deals with Mus musculus. As to the kind of experiment: Toxicity in human A549 cells xenografted in BALB/c mouse assessed as mortality at 0.5 mg/kg, iv qd for 5 days measured after 14 days. The data set is classed as organism-based. The arrangement: dose 0.5 mg/kg, route intravenous. To be noted: in vivo, 336 h.
In data set [8] the test system is A549. As to the kind of experiment: Antitumor activity against human A549 cells xenografted in BALB/c mouse assessed as decrease in tumor weight at 2 mg/kg, ip qd for 5 days measured after 14 days relative to control. The data set is classed as functional. To be noted: route intraperitoneal, read-out: TGI.
In data set [9] the test system is Mus musculus. Kind of data set: Toxicity in human A549 cells xenografted in BALB/c mouse assessed as reduction in body weight at 2 mg/kg, ip qd for 5 days measured after 14 days. The data set is classed as organism-based. Further details: dose 2 mg/kg, route intraperitoneal. To be noted: in vivo, 336 h.
The test system of data set [10] is Mus musculus. Kind of data set: Toxicity in human A549 cells xenografted in BALB/c mouse assessed as mortality at 2 mg/kg, ip qd for 5 days measured after 14 days. The data set is classed as organism-based. The arrangement: dose 2 mg/kg, route intraperitoneal. To be noted: in vivo, 336 h.
The test system of data set [11] is Mus musculus. Kind of data set: Toxicity in human A549 cells xenografted in BALB/c mouse assessed as gross abnormalities at 2 mg/kg, ip qd for 5 days measured after 14 days by necropsy analysis. Further details: dose 2 mg/kg, route intraperitoneal. To be noted: in vivo, 336 h. The data set is classed as organism-based.
In another data set the test system is ZR-75-30. As to the kind of experiment: Antiproliferative activity against human ZR75-30 cells after 3 days by MTT assay. The class given is functional, cell-based. To be noted: ZR-75-30, 72 h.
The test system of the next data set is MRC5. Kind of data set: Antiproliferative activity against human MRC5 cells after 3 days by MTT assay. To be noted: mrc5, 72 h. The class given is cell-based.
Data set [12] deals with A549. Kind of data set: Induction of apoptosis in human A549 cells assessed as morphological change at 5 uM after 48 hrs by phase contrast microscopy analysis. The data set is classed as functional, cell-based.
For data set [13], the system named is A549. Kind of data set: Induction of apoptosis in human A549 cells at 5 uM after 48 hrs by annexinV and propidium iodide dual stain based flow cytometry analysis relative to control. The class given is functional. (In general: A flow cytometer gives signals particle by particle.)

Usually IC50 stands for the concentration at which inhibition is half-maximal.

Each structure is given as a SMILES string. Activity calls are given as the source filed them. The rule behind the calls is not given here.

For the compound `CC[C@]1(O)c2cc3n(c(=O)c2CO[C@H]1OCCF)Cc1cc2ccccc2nc1-3`, the IC50 with A549 [1] came out at 6310 nM; in the data set with HCT-116, 249 nM; in the data set with MDA-MB-435 it was 1330 nM. Besides, in the data set filed under Bos taurus [2], the inhibition result was “Active”.

Consider `CCC(C)O[C@@H]1OCc2c(cc3n(c2=O)Cc2cc4ccccc4nc2-3)[C@@]1(O)CC` (stereo partly drawn), for which the IC50 in the data set with A549 [1], with HCT-116 and in the data set with MDA-MB-435 was above 100000 nM throughout.

In the case of `CCO[C@@H]1OCc2c(cc3n(c2=O)Cc2cc4ccccc4nc2-3)[C@@]1(O)CC`, the IC50 with A549 [1] was 322 nM; in the data set with HCT-116, 406 nM; in the data set with MDA-MB-435 it was 6250 nM. Further, the inhibition entry in the data set listed under Bos taurus [2] was “Active”.

Regarding `CC[C@]1(O)c2cc3n(c(=O)c2CO[C@H]1OCCOC)Cc1cc2ccccc2nc1-3`, the IC50 in the data set on A549 [1] came to 5190 nM; in the data set on HCT-116 it was 333 nM; in the data set with MDA-MB-435, 4920 nM. In the data set listed under Bos taurus [2], the inhibition result was “Active”.

Regarding `CCOCCO[C@@H]1OCc2c(cc3n(c2=O)Cc2cc4cc(OC)ccc4nc2-3)[C@@]1(O)CC`, the half-maximal inhibitory concentration (IC50) in the data set on A549 [1] turned out to be 838 nM; in the data set with HCT-116, 1 nM; in the data set with MDA-MB-435 it was 210 nM. Further, the inhibition result in the data set filed under Bos taurus [2] is “Active”. Moreover, the inhibition entry in the data set listed under Bos taurus [3] was “inactive”.

On to `CCCO[C@@H]1OCc2c(cc3n(c2=O)Cc2cc4ccccc4nc2-3)[C@@]1(O)CC`, for which the IC50 was 323 nM in the data set on A549 [1], 517 nM with HCT-116 and 12700 nM with MDA-MB-435.

Regarding `CCCCO[C@@H]1OCc2c(cc3n(c2=O)Cc2cc4ccccc4nc2-3)[C@@]1(O)CC`, the IC50 in the data set on A549 [1] is above 100000 nM; with HCT-116, 95100 nM; with MDA-MB-435, above 100000 nM. Moreover, in the data set filed under Bos taurus [2], the inhibition result is “Active”.

As for `CC[C@@]1(O)C(=O)OCc2c1cc1n(c2=O)Cc2cc3ccccc3nc2-1` [CAMPTOTHECIN], the IC50 in the data set with A549 [1] was 2610 nM; with HCT-116, 110 nM; in the data set with MDA-MB-435, 43.6 nM. In the data set filed under Bos taurus [4], the inhibition entry was “Dose-dependent effect”.

On to `CC[C@]1(O)c2cc3n(c(=O)c2CO[C@H]1OC)Cc1cc2ccccc2nc1-3`, for which the IC50 stood at 420 nM with A549 [1], 532 nM with HCT-116 and 3670 nM in the data set on MDA-MB-435. The inhibition result in the data set listed under Bos taurus [2] was “Active”.

On to `CC[C@@]1(O)C(=O)OCc2c1cc1n(c2=O)Cc2cc3c(CN(C)C)c(O)ccc3nc2-1` [TOPOTECAN], for which the figures for the IC50 with A549 [1], in the data set with HCT-116 and with MDA-MB-435 were 2800 nM, 88.9 nM and 917 nM, respectively. In the data set with A549 [5], the inhibition in vivo at 0.5 mg/kg was found to be 57.5%. Also, the Activity in the data set on Mus musculus [6] is on record as 15.15 g; in the data set on Mus musculus [7], “Non-toxic”.

Take `CC[C@]1(O)c2cc3n(c(=O)c2CO[C@H]1OC(C)C)Cc1cc2ccccc2nc1-3`: the IC50 with A549 [1] was above 100000 nM; in the data set with HCT-116 it was 11500 nM; with MDA-MB-435, above 100000 nM.

For the compound `CCOCCO[C@@H]1OCc2c(cc3n(c2=O)Cc2cc4ccccc4nc2-3)[C@@]1(O)CC`, the IC50 in the data set with A549 [1] was determined as 2580 nM; with HCT-116, 90.2 nM; in the data set on MDA-MB-435, 469 nM. Further, the inhibition result in the data set filed under Bos taurus [2] was “Active”. The inhibition in vivo at 2 mg/kg in the data set on A549 [8] turned out to be 35%. Further, the Activity with Mus musculus [9] is recorded as 20.98 g; with Mus musculus [10], “Non-toxic”; in the data set on Mus musculus [11] it was “Non-toxic”.

In the case of `CCOCC(C)O[C@@H]1OCc2c(cc3n(c2=O)Cc2cc4ccccc4nc2-3)[C@@]1(O)CC` (stereo partly drawn), the IC50 turned out to be 7400 nM with A549 [1], 236 nM in the data set with HCT-116 and 2520 nM with MDA-MB-435.

For the compound `CCCCc1c2c(nc3ccccc13)-c1cc3c(c(=O)n1C2)CO[C@@H](OCCOCC)[C@]3(O)CC`, the IC50 in the data set with A549 [1] is 598 nM; with HCT-116, 1 nM; in the data set on MDA-MB-435 it was 223 nM; with ZR-75-30 it was 122 nM. Further, the Activity result in the data set with MRC5 was “Non-toxic”; in the data set on A549 [13], 0.5%; in the data set on Mus musculus [9], 21.09 g; with Mus musculus [10] it was “Non-toxic”; in the data set on Mus musculus [11] it was “Non-toxic”. Moreover, the inhibition result in the data set filed under Bos taurus [2] was “Active”. Besides, in the data set filed under Bos taurus [3], the inhibition entry was “inactive”. Further, the result with A549 [12] was Active. For the same compound, the inhibition in vivo at 2 mg/kg with A549 [8] was 27%.

Regarding `CC[C@]1(O)c2cc3n(c(=O)c2CO[C@H]1OCC(F)(F)C(F)(F)F)Cc1cc2ccccc2nc1-3`, the figures for the IC50 in the data set on A549 [1], in the data set with HCT-116 and in the data set on MDA-MB-435 were 302 nM, 73 nM and 606 nM, respectively.

Turning to `CCCCCO[C@@H]1OCc2c(cc3n(c2=O)Cc2cc4ccccc4nc2-3)[C@@]1(O)CC`, the half-maximal inhibitory concentration (IC50) came out at 678 nM with A549 [1], 127 nM with HCT-116 and 10600 nM in the data set with MDA-MB-435.

Take `CC[C@]1(O)c2cc3n(c(=O)c2CO[C@H]1OC(=O)CCC(=O)O)Cc1cc2ccccc2nc1-3`: the IC50 in the data set with A549 [1] was found to be 308 nM; with HCT-116 it was 264 nM; in the data set with MDA-MB-435, 1320 nM.

As to `CCOCCO[C@@H]1OCc2c(cc3n(c2=O)Cc2cc4c([N+](=O)[O-])cccc4nc2-3)[C@@]1(O)CC`, the half-inhibitory concentration (IC50) in the data set on A549 [1] came to 5690 nM; in the data set with HCT-116 it was 56.9 nM; in the data set on MDA-MB-435 it was 1080 nM.

In the case of `CC[C@]1(O)c2cc3n(c(=O)c2CO[C@@H]1OC)Cc1cc2ccccc2nc1-3`, the IC50 was 8800 nM in the data set on A549 [1], 8170 nM in the data set on HCT-116 and 56400 nM with MDA-MB-435.

For `CC[C@]1(O)c2cc3n(c(=O)c2CO[C@H]1OC(C)COC)Cc1cc2ccccc2nc1-3` (stereo partly drawn), the IC50 in the data set on A549 [1] turned out to be 8380 nM; in the data set on HCT-116, 117 nM; with MDA-MB-435, 2740 nM.

On to `CC[C@]1(O)c2cc3n(c(=O)c2CO[C@H]1OCC(F)(F)F)Cc1cc2ccccc2nc1-3`, for which the figures for the concentration for half-maximal inhibition (IC50) in the data set on A549 [1], in the data set on HCT-116 and in the data set on MDA-MB-435 were 5970 nM, 309 nM and 2300 nM, respectively. In addition, the inhibition entry in the data set listed under Bos taurus [2] was “Active”.

For the compound `CC[C@]1(O)c2cc3n(c(=O)c2CO[C@H]1OCC(C)C)Cc1cc2ccccc2nc1-3`, the IC50 stood at 394 nM in the data set with A549 [1], 210 nM in the data set on HCT-116 and 7900 nM in the data set on MDA-MB-435.
